Data: article PMC5085689, “Cinnamide Derivatives as Mammalian Arginase Inhibitors: Synthesis, Biological Evaluation and Molecular Docking” (International Journal of Molecular Sciences, 2016)
Several values for one entry are separate records, joined by “and”; a condition that tells them apart may be missing. Identical values can stand only once. Like-named read-outs stand apart in the source and are kept apart here.

Assays:
b-ARG I = biological target: T1, b-ARG I (Bos taurus, UniProt Q2KJ64); assay: Enzyme kinetic study and determination of Ki values on b-ARG I; type: biochemical, bovine; conditions: for Type of Inhibition: Lineweaver–Burk, Dixon and Cornish–Bowden plots
T1 construct: commercially-available purified bovine arginase (b-ARG I) instead of animal tissue; purchased MP Biomedicals; host or cells: bovine liver (enzyme purified from tissue)
T1 sequence (Q2KJ64 1-322): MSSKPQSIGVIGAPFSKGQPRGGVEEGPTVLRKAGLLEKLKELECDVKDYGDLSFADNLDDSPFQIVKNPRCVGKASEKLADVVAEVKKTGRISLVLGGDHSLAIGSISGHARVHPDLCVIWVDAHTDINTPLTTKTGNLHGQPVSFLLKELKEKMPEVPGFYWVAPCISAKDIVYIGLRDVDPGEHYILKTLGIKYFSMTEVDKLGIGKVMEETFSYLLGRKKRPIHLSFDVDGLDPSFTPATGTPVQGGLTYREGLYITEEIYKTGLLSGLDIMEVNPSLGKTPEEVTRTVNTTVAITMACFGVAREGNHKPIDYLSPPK

[1] = biological target: T2, purified liver bovine arginase (b-ARG I) (Bos taurus, UniProt Q2KJ64); assay: In vitro colorimetric microassay of arginase inhibition on purified bovine liver arginase; type: biochemical; conditions: for inhibition at 100 µM: read-out: b-ARG I Inhibition (%) (100 μM);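 for all read-outs here: urea formed from L-arginine detected colorimetrically with alpha-isonitrosopropiophenone at 550 nm after 60 min at 37 °C, inhibition relative to solvent controls taken as 100% arginase activity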
T2 construct: commercially-available purified bovine arginase (b-ARG I) instead of animal tissue; purchased MP Biomedicals; host or cells: bovine liver (enzyme purified from tissue)
T2 sequence (Q2KJ64 1-322): T1 sequence (Q2KJ64 1-322)

[2] = biological target: T3, recombinant human arginase I (h-ARG I) (Homo sapiens, UniProt P05089); assay: In vitro colorimetric microassay of arginase inhibition on recombinant human arginase I; type: biochemical
T3 construct: purchased Interchim BXC572/n P0408M10
T3 sequence (P05089 1-322): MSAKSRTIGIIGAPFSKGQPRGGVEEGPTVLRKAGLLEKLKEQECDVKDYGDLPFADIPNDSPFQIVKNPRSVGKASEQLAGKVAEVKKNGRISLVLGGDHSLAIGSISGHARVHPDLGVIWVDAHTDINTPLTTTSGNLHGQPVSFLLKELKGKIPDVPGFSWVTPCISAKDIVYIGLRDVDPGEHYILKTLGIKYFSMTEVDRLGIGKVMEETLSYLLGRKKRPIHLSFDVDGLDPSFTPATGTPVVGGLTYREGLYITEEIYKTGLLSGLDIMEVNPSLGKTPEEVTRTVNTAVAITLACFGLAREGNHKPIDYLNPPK

[3] = b-ARG I, Cheng–Prusoff equation, [S] = 14.3 mM L-arginine, Km = 55.5 ± 10.5 µM, read-out: Ki
[4] = 100 μM final concentration, three separate in-duplicate experiments
[5] = purified bovine liver arginase, three separate in-triplicate experiments, read-out: IC50 (b-ARG I)

Row | inhibition at 100 µM [1, 4] [%] | IC50 [1, 5] [µM] | SMILES | further results
1 | 64 ± 2 | 6.9 ± 1.3 | O=C(/C=C/c1ccc(O)c(O)c1)NCCc1ccccc1 [Compound 1, (E)-N-(2-Phenylethyl)-3,4-dihydroxycinnamide] | Ki (b-ARG I; [3]): 5.5 ± 1 µM; Type of Inhibition (b-ARG I; b-ARG I, listed as CAPA): competitive inhibitor; Type of Inhibition (b-ARG I; b-ARG I, listed as CAPA (1)): competitive; IC50 [2]: 60.3 ± 7.8 µM
2 | 24 ± 2 |  | COc1cc(/C=C/C(=O)NCCc2ccc(O)cc2)ccc1O [Compound 7, (E)-N-(4-Hydroxyphenethyl)-3-methoxy-4-hydroxycinnamide] | 
3 | 34 ± 3 |  | O=C(/C=C/c1ccccc1)NCCc1ccc(O)cc1 [Compound 10, (E)-N-(4-Hydroxyphenethyl)-cinnamide] | 
4 | 61 ± 3 | 198.7 ± 1.4 | COc1cc(/C=C/C(=O)NCCc2ccc(O)c(O)c2)ccc1O [Compound 12, (E)-N-(3,4-Dihydroxyphenethyl)-3-methoxy-4-hydroxycinnamide] | 
5 | 54 ± 1 | 170.4 ± 1.7 | O=C(/C=C/c1ccc(O)cc1)NCCc1ccc(O)c(O)c1 [Compound 13, (E)-N-(3,4-Dihydroxyphenethyl)-4-hydroxycinnamide] | 
6 | 53 ± 1 | 193.6 ± 1.4 | COc1cc(/C=C/C(=O)NCCc2ccc(O)c(O)c2)cc(OC)c1OC [Compound 14, (E)-N-(3,4-Dihydroxyphenethyl)-3,4,5-trimethoxycinnamide] | 
7 | 59 ± 1 | 35.6 ± 1.3 | O=C(/C=C/c1ccc(O)c(O)c1)Nc1ccc(O)cc1 [Compound 16, (E)-N-(4-Hydroxyphenyl)-3,4-dihydroxycinnamide] | 
8 | 67 ± 1 | 37 ± 1.3 | COC(=O)[C@H](CS)NC(=O)/C=C/c1ccc(O)c(O)c1 [Compound 19, (E)-N-(3,4-Dihydroxycinnamoyl)-L-cysteine methyl ester] | 

More lines, now with the values behind:

Row | SMILES | inhibition at 100 µM [1, 4] [%] | IC50 [1, 5] [µM] | further results
9 | O=C(/C=C/c1ccc(O)c(O)c1)O[C@@H]1C[C@](O)(C(=O)O)C[C@@H](O)[C@H]1O [CGA, chlorogenic acid, reference compound] |  |  | Ki (b-ARG I): 8.4 ± 1.2 µM; Type of Inhibition (b-ARG I; b-ARG I): competitive; IC50 ([1]; IC50 (b-ARG I), purified bovine liver arginase, three separate in-triplicate experiments): < 50 µM and 10.6 µM; inhibition at 100 µM [1]: 71 ± 1%
10 | O=C(O)/C=C/c1ccc(O)c(O)c1 [Caffeic acid, reference compound] |  |  | IC50 [1]: 86.7 ± 8 µM
11 | COc1cc(/C=C/C(=O)NCCc2ccccc2)ccc1O [Compound 2, (E)-N-(2-Phenylethyl)-3-methoxy-4-hydroxycinnamide] | 37 ± 4 |  | 
12 | O=C(/C=C/c1ccc(O)cc1)NCCc1ccccc1 [Compound 3, (E)-N-(2-Phenylethyl)-4-hydroxycinnamide] | 31 ± 4 |  | 
13 | COc1cc(/C=C/C(=O)NCCc2ccccc2)cc(OC)c1OC [Compound 4, (E)-N-(2-Phenylethyl)-3,4,5-trimethoxycinnamide] | 35 ± 2 |  | 
14 | O=C(/C=C/c1ccccc1)NCCc1ccccc1 [Compound 5, (E)-N-(2-Phenylethyl)cinnamide] | 34 ± 2 |  | 
15 | O=C(/C=C/c1ccc(O)c(O)c1)NCCc1ccc(O)cc1 [Compound 6, (E)-N-(2-(4-Hydroxyphenyl)ethyl)-3,4-dihydroxycinnamide] | 58 ± 2 | 22.1 ± 1.6 | 
16 | O=C(/C=C/c1ccc(O)cc1)NCCc1ccc(O)cc1 [Compound 8, (E)-N-(4-Hydroxyphenethyl)-4-hydroxycinnamide] | 40 ± 2 |  | 
17 | COc1cc(/C=C/C(=O)NCCc2ccc(O)cc2)cc(OC)c1OC [Compound 9, (E)-N-(4-Hydroxyphenethyl)-3,4,5-trimethoxycinnamide] | 30 ± 2 |  | 
18 | O=C(/C=C/c1ccc(O)c(O)c1)NCCc1ccc(O)c(O)c1 [Compound 11, (E)-N-(3,4-Dihydroxyphenethyl)-3,4-dihydroxycinnamide] | 62 ± 3 | 115 ± 1.3 | 
19 | O=C(/C=C/c1ccccc1)NCCc1ccc(O)c(O)c1 [Compound 15, (E)-N-(3,4-Dihydroxyphenethyl)cinnamide] | 68 ± 3 | 39.3 ± 1.4 | 
20 | O=C(NCCc1ccc(O)cc1)c1ccc(O)c(O)c1 [Compound 17, N-(4-Hydoxyphenethyl)-3,4-dihydroxybenzamide] | 52 ± 2 | 175.3 ± 1.5 | 
21 | COC(=O)C(Cc1ccc(O)c(O)c1)NC(=O)C=Cc1ccc(O)c(O)c1 (stereo not shown) [Compound 18, 3-(3,4-Dihydroxyphenyl)-2-[3-(3,4-dihydroxyphenyl)-acryloylamino]-propionic acid methyl ester] | 62 ± 1 | 41.9 ± 1.3 | 
22 | N=C(NO)NCC[C@H](N)C(=O)O [nor-NOHA, N^ω-hydroxy-nor-L-arginine, reference compound] | 99 ± 1 | 1.7 ± 0.2 | Ki (b-ARG I; [3]): 1.3 ± 0.1 µM; Type of Inhibition (b-ARG I; b-ARG I): competitive
